From US7683168B2, “Compositions of novel opioid compounds and method of use thereof” (priority 2005, dated 2010)
pEC50, pKi: −log10 of the molar value.

Tests used:
human delta receptor = biological target: T1, human delta receptor (Homo sapiens, UniProt P41143); test: radioligand binding, human delta receptor, HEK-293 cell membranes; conditions: cell not marked (rat), species not given, read-out: δ
T1 construct: purchased Perkin Elmer, Boston, Mass; 6110549; host or cells: HEK-293 cells

mouse vas deferens = test: electrically stimulated mouse vas deferens (MVD) ED50; format: cell-based; conditions: ED50, inhibition of electrically induced contractions
human mu opioid receptor = biological target: T2, human mu opioid receptor (Homo sapiens, UniProt P35372); test: radioligand binding, human mu opioid receptor, CHO cell membranes; conditions: species not given, read-out: μ
T2 construct: purchased Perkin Elmer, Boston, Mass; 6110535; host or cells: CHO cells
T2 sequence (P35372 whole entry): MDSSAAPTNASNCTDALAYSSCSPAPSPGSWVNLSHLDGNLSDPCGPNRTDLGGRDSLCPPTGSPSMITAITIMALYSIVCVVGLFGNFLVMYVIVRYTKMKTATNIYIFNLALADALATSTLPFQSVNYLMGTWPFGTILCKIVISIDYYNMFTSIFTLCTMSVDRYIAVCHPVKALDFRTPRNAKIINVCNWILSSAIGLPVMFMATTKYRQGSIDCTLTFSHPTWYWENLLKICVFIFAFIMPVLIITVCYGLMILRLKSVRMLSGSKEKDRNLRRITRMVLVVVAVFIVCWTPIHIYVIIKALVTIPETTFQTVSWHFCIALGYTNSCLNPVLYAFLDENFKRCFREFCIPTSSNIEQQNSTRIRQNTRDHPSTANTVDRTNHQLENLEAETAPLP

T1 sequence (P41143 whole entry): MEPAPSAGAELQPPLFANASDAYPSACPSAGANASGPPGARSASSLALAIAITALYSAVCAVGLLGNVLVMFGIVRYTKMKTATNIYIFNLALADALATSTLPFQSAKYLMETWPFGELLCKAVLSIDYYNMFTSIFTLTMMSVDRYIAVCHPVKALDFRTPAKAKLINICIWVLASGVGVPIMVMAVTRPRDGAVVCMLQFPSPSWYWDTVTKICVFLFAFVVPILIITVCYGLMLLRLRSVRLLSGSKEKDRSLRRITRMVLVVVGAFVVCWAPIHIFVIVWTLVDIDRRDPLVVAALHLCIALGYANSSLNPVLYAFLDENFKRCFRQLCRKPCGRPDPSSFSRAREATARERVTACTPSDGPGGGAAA

| Compound | pKi (human delta receptor) | pEC50 (mouse vas deferens) | pKi (human mu opioid receptor) |
| --- | --- | --- | --- |
| C=CCN1C[C@H](C)N(C(c2cccc(O)c2)c2cccc(C(=O)N3CCCN(CCCCCCC(=O)OCC)CC3)c2)C[C@H]1C (stereo partly shown) | 8.51 | 7.28 | 8.41 |
| CCOC(=O)CCCCN1CCN(C(=O)c2cccc([C@H](c3cccc(O)c3)N3C[C@@H](C)N(CC4CC4)C[C@@H]3C)c2)CC1 [Example 89, 5-(4-{3-[(R)-((2S,5R)-4-Cyclopropylmethyl-2,5-dimethyl-piperazin-1-yl)-(3-hydroxy-phenyl)-methyl]-benzoyl}-piperazin-1-yl)-pentanoic acid ethyl ester] | 7.81 | 7.03 | 7.63 |
| CCOC(=O)CCCN1CCN(C(=O)c2cccc([C@H](c3cccc(O)c3)N3C[C@@H](C)N(Cc4cccc(F)c4)C[C@@H]3C)c2)CC1 [Example 81, 4-(4-{3-[(R)-((2S,5R)-4-(3-Fluorobenzyl)-2,5-dimethyl-piperazin-1-yl)-(3-hydroxy-phenyl)-methyl]-benzoyl}-piperazin-1-yl)-butyric acid ethyl ester] | 7.90 | 7.35 | 8.31 |
| CCOC(=O)CCCN1CCCN(C(=O)c2cccc(C(c3cccc(O)c3)N3C[C@@H](C)N(CC4CC4)C[C@@H]3C)c2)CC1 (stereo partly shown) | 7.99 | 7.03 | 8.41 |
| CCOC(=O)CCCCN1CCCN(C(=O)c2cccc(C(c3cccc(O)c3)N3C[C@@H](C)N(CC4CC4)C[C@@H]3C)c2)CC1 (stereo partly shown) | 7.05 | 6.94 | 7.52 |
| CCOC(=O)CCCCN1CCN(C(=O)c2cccc([C@H](c3cccc(O)c3)N3C[C@@H](C)N(Cc4cccc(F)c4)C[C@@H]3C)c2)CC1 [Example 87, 5-(4-{3-[(R)-((2S,5R)-4-(3-Fluorobenzyl)-2,5-dimethyl-piperazin-1-yl)-(3-hydroxy-phenyl)-methyl]-benzoyl}-piperazin-1-yl)-pentanoic acid ethyl ester] | 7.97 | 7.44 | 7.67 |
| CCOC(=O)CCCCCN1CCN(C(=O)c2cccc([C@H](c3cccc(O)c3)N3C[C@@H](C)N(Cc4cccc(F)c4)C[C@@H]3C)c2)CC1 [Example 98, 6-(4-{3-[(R)-((2S,5R)-4-(3-Fluorobenzyl)-2,5-dimethyl-piperazin-1-yl)-(3-hydroxy-phenyl)-methyl]-benzoyl}-piperazin-1-yl)-hexanoic acid ethyl ester] | 8.15 | 6.99 | 8.07 |
| C=CCN1C[C@H](C)N([C@@H](c2cccc(O)c2)c2cccc(C(=O)N3CCN(CCCCCCC(=O)OCC)CC3)c2)C[C@H]1C [Example 108, 7-(4-{3-[(R)-((2S,5R)-4-Allyl-2,5-dimethyl-piperazin-1-yl)-(3-hydroxy-phenyl)-methyl]-benzoyl}-piperazin-1-yl)-heptanoic acid ethyl ester] |  | 7.50 |  |
| CCOC(=O)CCCCCN1CCCN(C(=O)c2cccc(C(c3cccc(O)c3)N3C[C@@H](C)N(CC4CC4)C[C@@H]3C)c2)CC1 (stereo partly shown) | 7.63 | 5.98 | 8.03 |
| CCOC(=O)CCCCCCN1CCCN(C(=O)c2cccc(C(c3cccc(O)c3)N3C[C@@H](C)N(Cc4ccccc4)C[C@@H]3C)c2)CC1 (stereo partly shown) | 8.62 | 7.54 | 8.42 |
| C[C@@H]1CN(C(c2cccc(O)c2)c2cccc(C(=O)N3CCCN(CCCCCC(=O)O)CC3)c2)[C@@H](C)CN1CC1CC1 (stereo partly shown) | 8.25 | 6.96 | 7.69 |
| C[C@@H]1CN([C@@H](c2cccc(O)c2)c2cccc(C(=O)N3CCN(CC(=O)O)CC3)c2)[C@@H](C)CN1Cc1ccc(F)cc1 [Example 116, (4-{3-[(R)-[(2S,5R)-4-(4-Fluoro-benzyl)-2,5-dimethyl-piperazin-1-yl]-(3-hydroxy-phenyl)-methyl]-benzoyl}-piperazin-1-yl)-acetic acid] | 9.08 | 8.71 |  |
| C=CCN1C[C@H](C)N(C(c2cccc(O)c2)c2cccc(C(=O)N3CCCN(CCCCCC(=O)OCC)CC3)c2)C[C@H]1C (stereo partly shown) | 8.49 | 7.36 | 7.67 |
| CCOC(=O)CCCCCCN1CCN(C(=O)c2cccc([C@H](c3cccc(O)c3)N3C[C@@H](C)N(Cc4cccc(F)c4)C[C@@H]3C)c2)CC1 [Example 112, 7-(4-{3-[(R)-[(2S,5R)-4-(3-Fluoro-benzyl)-2,5-dimethyl-piperazin-1-yl]-(3-hydroxy-phenyl)-methyl]-benzoyl}-piperazin-1-yl)-heptanoic acid ethyl ester] |  | 6.96 | 8.23 |
| C[C@@H]1CN(C(c2cccc(O)c2)c2cccc(C(=O)N3CCCN(CCCCCCC(=O)O)CC3)c2)[C@@H](C)CN1Cc1ccccc1 (stereo partly shown) | 8.31 | 7.98 | 8.20 |
| C=CCN1C[C@H](C)N([C@@H](c2cccc(O)c2)c2cccc(C(=O)N3CCN(Cc4cccc5c4ccn5CC(=O)O)CC3)c2)C[C@H]1C [Example 107, [4-(4-{3-[(R)-((2S,5R)-4-Allyl-2,5-dimethyl-piperazin-1-yl)-(3-hydroxy-phenyl)-methyl]-benzoyl}-piperazin-1-ylmethyl)-indol-1-yl]-acetic acid] | 9.02 | 8.40 | 8.19 |

| Compound | pKi (human delta receptor) | pEC50 (mouse vas deferens) | pKi (human mu opioid receptor) |
| --- | --- | --- | --- |
| C=CCN1C[C@H](C)N([C@@H](c2cccc(O)c2)c2cccc(C(=O)N3CCN(CCCCCC(=O)OCC)CC3)c2)C[C@H]1C [Example 93, 6-(4-{3-[(R)-((2S,5R)-4-Allyl-2,5-dimethyl-piperazin-1-yl)-(3-hydroxy-phenyl)-methyl]-benzoyl}-piperazin-1-yl)-hexanoic acid ethyl ester] | 8.27 | 7.23 | 7.52 |
| CCOC(=O)CN1CCN(C(=O)c2cccc([C@H](c3cccc(O)c3)N3C[C@@H](C)N(Cc4cccc(F)c4)C[C@@H]3C)c2)CC1 [Example 66, (4-{3-[(R)-[(2S,5R)-4-(3-Fluoro-benzyl)-2,5-dimethyl-piperazin-1-yl]-(3-hydroxy-phenyl)-methyl]-benzoyl}-piperazin-1-yl)-acetic acid ethyl ester] | 8.89 | 7.66 | 8.30 |
| C[C@@H]1CN(C(c2cccc(O)c2)c2cccc(C(=O)N3CCCN(CCCCCC(=O)O)CC3)c2)[C@@H](C)CN1Cc1cccc(F)c1 (stereo partly shown) | 7.60 | 7.79 | 6.65 |
| CCOC(=O)CCCCCN1CCCN(C(=O)c2cccc(C(c3cccc(O)c3)N3C[C@@H](C)N(Cc4cccc(F)c4)C[C@@H]3C)c2)CC1 (stereo partly shown) | 7.89 | 6.81 | 7.23 |
| CCOC(=O)CCCN1CCN(C(=O)c2cccc([C@H](c3cccc(O)c3)N3C[C@@H](C)N(CC4CC4)C[C@@H]3C)c2)CC1 [Example 77, 4-(4-{3-[(R)-((2S,5R)-4-Cyclopropylmethyl-2,5-dimethyl-piperazin-1-yl)-(3-hydroxy-phenyl)-methyl]-benzoyl}-piperazin-1-yl)-butyric acid ethyl ester] | 6.40 | 6.96 | 8.36 |
| CCOC(=O)N1CCN(C(=O)c2cccc([C@H](c3cccc(O)c3)N3C[C@@H](C)N(Cc4cccc(F)c4)C[C@@H]3C)c2)CC1 [Example 60, 4-{3-[(R)-[(2S,5R)-4-(3-Fluorobenzyl)-2,5-dimethylpiperazin-1-yl]-(3-hydroxyphenyl)methyl]benzoyl}piperazine-1-carboxylic acid ethyl ester] | 7.88 | 7.33 | 8.01 |
| CCOC(=O)CCCCCCN1CCCN(C(=O)c2cccc(C(c3cccc(O)c3)N3C[C@@H](C)N(CC4CC4)C[C@@H]3C)c2)CC1 (stereo partly shown) | 7.35 | 7.06 | 8.10 |
| C=CCN1C[C@H](C)N(C(c2cccc(O)c2)c2cccc(C(=O)N3CCCN(Cc4ccccc4C(=O)OC)CC3)c2)C[C@H]1C (stereo partly shown) |  | 7.66 |  |
| C[C@@H]1CN([C@@H](c2cccc(O)c2)c2cccc(C(=O)N3CCN(CC(=O)O)CC3)c2)[C@@H](C)CN1CC1CC1 [Example 71] | 8.21 | 7.45 | 7.09 |
| C[C@@H]1CN([C@@H](c2cccc(O)c2)c2cccc(C(=O)N3CCN(CCCCCCC(=O)O)CC3)c2)[C@@H](C)CN1CC1CC1 [Example 115, 7-(4-{3-[(R)-((2S,5R)-4-Cyclopropylmethyl-2,5-dimethyl-piperazin-1-yl)-(3-hydroxy-phenyl)-methyl]-benzoyl}-piperazin-1-yl)-heptanoic acid] | 7.66 | 7.07 |  |
| C=CCN1C[C@H](C)N(C(c2cccc(O)c2)c2cccc(C(=O)N3CCCN(Cc4cccc(C(=O)OC)c4)CC3)c2)C[C@H]1C (stereo partly shown) |  | 7.71 |  |
| CCOC(=O)CCCCCN1CCN(C(=O)c2cccc([C@H](c3cccc(O)c3)N3C[C@@H](C)N(CC4CC4)C[C@@H]3C)c2)CC1 [Example 100, 6-(4-{3-[(R)-((2S,5R)-4-Cyclopropylmethyl-2,5-dimethyl-piperazin-1-yl)-(3-hydroxy-phenyl)-methyl]-benzoyl}-piperazin-1-yl)-hexanoic acid ethyl ester] |  | 6.77 |  |
| C[C@@H]1CN([C@@H](c2cccc(O)c2)c2cccc(C(=O)N3CCN(CCCCCC(=O)O)CC3)c2)[C@@H](C)CN1CC1CC1 [Example 101, 6-(4-{3-[(R)-((2S,5R)-4-Cyclopropylmethyl-2,5-dimethyl-piperazin-1-yl)-(3-hydroxy-phenyl)-methyl]-benzoyl}-piperazin-1-yl)-hexanoic acid] |  | 7.12 |  |
| C[C@@H]1CN(C(c2cccc(O)c2)c2cccc(C(=O)N3CCCN(CC(=O)O)CC3)c2)[C@@H](C)CN1Cc1cccc(F)c1 (stereo partly shown) |  |  | 8.51 |
| CCOC(=O)CCCCCCN1CCN(C(=O)c2cccc([C@H](c3cccc(O)c3)N3C[C@@H](C)N(CC4CC4)C[C@@H]3C)c2)CC1 [Example 114, 7-(4-{3-[(R)-((2S,5R)-4-Cyclopropylmethyl-2,5-dimethyl-piperazin-1-yl)-(3-hydroxy-phenyl)-methyl]-benzoyl}-piperazin-1-yl)-heptanoic acid ethyl ester] |  | 6.66 |  |
